# Results published in patent US12391737B2, “Soluble NPY2 receptor agonists” (Boehringer Ingelheim International GmbH, priority 2020, dated 2025).
# Assay: Solubility determination
# Conditions: for Sol6: pH 6; for Sol7: pH 7
# Protocol: Peptides (as TFA salts) were weighed out in a filter unit (Mini-UniPrep Syringeless Filter 0.45 μm, Whatman), and 0.1 M sodium diphosphate buffer at pH 6.4 or 7.0 was added to achieve 10 mg/ml final concentration. The peptide was dissolved by shaking the filter unit horizontally at 600 rpm for 2 hours at room temperature. The sample was filtered, to remove any insoluble particles and diluted to 1 mg/ml in 50% acetonitrile. The control was prepared by weighing out the corresponding peptide and dissolving it in 50% acetonitrile to final concentration of 1 mg/ml. Both the control and sample were analysed with reversed phase chromatography. The area under the peak of the sample was compared to the control and the solubility was calculated based on that ratio.
# The pH was measured and recorded for each sample.
# System: UltiMate 3000 UPLC, ThermoFisher
# Mobile phase A: 5% acetonitrile, 95% water, 0.03% trifluoracetic acid.
# Mobile phase B: 95% acetonitrile, 5% water, 0.03% trifluoracetic acid.
# Gradient: 0-100% mobile phase B (2 mins.)
# Column temperature: 50° C.
SMILES,Sol6 [mg/mL],Sol7 [mg/mL]
"CC(C)CC(=O)N[C@@H](C)C(=O)N1CCC[C@H]1C(=O)N[C@@H](CCC(=O)O)C(=O)N[C@@H](CCCCNC(=O)CCCCCNC(=O)CC[C@H](NC(=O)CCCCCCCCCCCCCCCCC(=O)O)C(=O)O)C(=O)N1CCC[C@H]1C(=O)N[C@@H](CCC(=O)O)C(=O)N[C@@H](C)C(=O)N[C@@H](CC(=O)O)C(=O)N[C@@H](C)C(=O)N[C@@H](CCC(=O)O)C(=O)N1CCC[C@H]1C(=O)N[C@@H](CCC(=O)O)C(=O)N[C@@H](CCC(=O)O)C(=O)N[C@@H](CC(C)C)C(=O)N[C@@H](CCC(N)=O)C(=O)N[C@@H](CCCNC(=N)N)C(=O)N[C@@H](Cc1ccc(O)cc1)C(=O)N[C@@H](Cc1ccc(O)cc1)C(=O)N[C@H](C(=O)N[C@@H](C)C(=O)N[C@@H](CC(C)C)C(=O)N[C@@H](CCCNC(=N)N)C(=O)N[C@@H](Cc1c[nH]cn1)C(=O)N[C@@H](Cc1ccc(O)cc1)C(=O)N[C@@H](Cc1ccc(O)cc1)C(=O)N[C@@H](CC(N)=O)C(=O)N[C@@H](Cc1c[nH]c2ccccc12)C(=O)N[C@@H](CC(C)C)C(=O)N[C@H](C(=O)N[C@@H](CCCNC(=N)N)C(=O)N[C@@H](CCC(N)=O)C(=O)N[C@@H](CCCNC(=N)N)C(=O)N[C@@H](Cc1ccc(O)cc1)C(N)=O)[C@@H](C)O)C(C)C [Compound 6, N{alpha-4}-(3-methylbutanoyl)-N{epsilon-7}-(6-[(4S)-4-carboxy-4-(17-carboxyheptadecanamido)butanamido]hexanoyl)[4A,7K,9E,10A,13E,18Q,22V,23A,28Y,30W,31L]-hPYY(4-36)]",9.6,10.0
"CC(C)CC(=O)N[C@@H](C)C(=O)N1CCC[C@H]1C(=O)N[C@@H](C)C(=O)N[C@@H](CCCCNC(=O)CCCCCNC(=O)CC[C@H](NC(=O)CCCCCCCCCCCCCCCCC(=O)O)C(=O)O)C(=O)N1CCC[C@H]1C(=O)N[C@@H](CCC(=O)O)C(=O)N[C@@H](C)C(=O)N[C@@H](C)C(=O)N[C@@H](C)C(=O)N[C@@H](CCC(=O)O)C(=O)N1CCC[C@H]1C(=O)N[C@@H](CCC(=O)O)C(=O)N[C@@H](CCC(=O)O)C(=O)N[C@@H](CC(C)C)C(=O)N[C@@H](CCC(N)=O)C(=O)N[C@@H](CCCNC(=N)N)C(=O)N[C@@H](Cc1ccc(O)cc1)C(=O)N[C@@H](Cc1ccc(O)cc1)C(=O)N[C@H](C(=O)N[C@@H](C)C(=O)N[C@@H](CC(C)C)C(=O)N[C@@H](CCCNC(=N)N)C(=O)N[C@@H](Cc1c[nH]cn1)C(=O)N[C@@H](Cc1ccc(O)cc1)C(=O)N[C@@H](Cc1ccc(O)cc1)C(=O)N[C@@H](CC(N)=O)C(=O)N[C@@H](Cc1c[nH]c2ccccc12)C(=O)N[C@@H](CC(C)C)C(=O)N[C@H](C(=O)N[C@@H](CCCNC(=N)N)C(=O)N[C@@H](CCC(N)=O)C(=O)N[C@@H](CCCNC(=N)N)C(=O)N[C@@H](Cc1ccc(O)cc1)C(N)=O)[C@@H](C)O)C(C)C [Compound 10, N{alpha-4}-(3-methylbutanoyl)-N{epsilon-7}-(6-[(4S)-4-carboxy-4-(17-carboxyheptadecanamido)butanamido]hexanoyl)[4A,6A,7K,9E,10A,11A,13E,18Q,22V,23A,28Y,30W,31L]-hPYY(4-36)]",0.0,0.0
